The values below are quoted from earlier work in patent US20120289594A1, “ORAL DOSAGE FORM” (Orion Corporation, priority 2005, published 2012).

The conditions of data set [1]: background statement.
The conditions of data set [2]: background statement. This is another data set of the same source.

With `CCN(CC)C(=O)/C(C#N)=C/c1cc(O)c(O)c([N+](=O)[O-])c1` [Entacapone, (E)-2-cyano-3-(3,4-dihydroxy-5-nitrophenyl)-N-diethyl-2 propenamide], the water solubility result in data set [1] is recorded as “very low”. The “absorption in the gastrointestinal tract” value in data set [2] is listed as “quickly absorbed”.
